Test system: HCV
Test: Pharmacodynamic evaluation of antiviral drug in C/O^Tg mice by acute HCV infection (HCV RNA copies by qRT-PCR)
Assay type: in vivo, C/O^Tg male mice
Conditions: for viral load in the peripheral blood: started 1 week after HCV injection
Method: Plasmid pJ399EM was transcribed in vitro (Han et al., 2009) to obtain a RNA, and then the RNA was electroporated into Huh7.5.1 cells (Pasteur Institute) for virus production during 96 hours and for collection, followed by ultrafiltration and purification to obtain HCV. The C/O^Tg double transgenic mice or the wile type mice were injected at tail-vein with HCV (TCID50=1×10^8/mL) within 1-2 minutes. The serum or liver tissue of the C/O^Tg double transgenic mice or the wile type mice were collected respectively at indicated time 0 hour to 12 months after infection. HCV RNA level in serum (genomes/mL) and liver (genomes/g) were measured by qRT-PCR. The program was performed as follows: 50° C. for 30 minutes, 95° C. for 10 minutes, followed by 50 cycles at 95° C. for 30 seconds, 58° C. for 30 seconds, and 72° C. for 30 seconds. Primers used for detection were as follows: sense (forward primer): […] (represented by SEQ ID NO. 5); anti-sense (reverse primer): […] (represented by SEQ ID NO. 6). The viral load in serum (genomes/mL) of the wild type mice after injection was: 53746900±747977 (12 hours), 25791242±8626787 (2 days), 7026±2797 (4 days), 433±73 (1 week), and then the viral copies in peripheral blood of wild type mice was undetectable after one week. The viral load in peripheral blood (genomes/mL) of the C/O^Tg double transgenic mice after injection was: 3598678±3016340 (12 hours), 1607875±1304933 (2 days), 228942±174178 (4 days), 64505±6821 (1 week), 67622±4612 (2 weeks), 33671±13347 (3 weeks), 6921±4272 (1 month), 6739±4783 (2 months), 403±95 (3 months), 534±125 (4 months), 1375±198 (6 months), 4781±2969 (10 months), 2067±277 (12 months). […] The viral copies cannot be detectable in liver of the wile type mice after injection. The viral copies in the liver (genomes/g) of the C/O^Tg double transgenic mice after injection was: 149676500±26422459.09 (12 hours), 68863260±26554660 (2 days), 30167166±14023164 (4 days), 48183923±49326087 (1 week), 5221675±782099 (2 weeks), 4723475±570250 (3 weeks), 5649760±3372903 (1 month), 3597135±2671267 (2 months), 1831199±34834 (3 months), 3055570±565440 (4 months), 10729851±3954535 (6 months), 14392085±1902774 (10 months), 15543000±124774 (12 months). […] Meanwhile, the liver tissues were used for pathological analysis (H&E stain, Masson's stain), ultrasound, CT and other non-invasive imaging analysis to assess hepatitis, liver damage (fibrosis and cirrhosis) and other typical HCV pathology caused by HCV infection. The double transgenic mice infected by HCV express mild hepatitis symptoms (most ALT<40). The ALT level of the wild type mice was (U/L): 17.8±11.08 (uninfected), 10.5 0.51 (12 hours), 7.0±1.42 (2 days), 29.5±9.19 (4 days), 6.6±3.54 (1 weeks), 28.2±8.84 (2 weeks), 17.7±13.33 (1 month), 27.9±1.69 (2 months), 26.5±0.70 (3 months), 37.4±12.90 (4 months), 27.3±6.01 (10 months), 16.5±6.29 (12 months). The ALT level of the C/O^Tg double transgenic mice was (U/L): 17.8±11.01 (uninfected), 7.8±6.72 (12 hours), 28.0±1.25 (2 days), 57.3±3.88 (4 days), 16.3±7.72 (1 week), 61.0±5.65 (2 week), 21.2±11.16 (1 month), 19.6±0.68 (2 months), 27.4±10.25 (3 months), 36.3±4.06 (4 months), 35.7±5.44 (6 months), 19.5±3.79 (10 months), 232.3±26.89 (12 months). […] The prealbumin levels of the wild type mice after injection were maintained at normal levels (20˜30 mg/L), but the prealbumin levels of the C/O^Tg double transgenic mice cannot be detectable 4 days after infection. […]

Structure (SMILES) | viral load in the peripheral blood (Ribavirin 20 mg/kg i.p. daily, treatment for 1 week) | viral load in the peripheral blood (Ribavirin 20 mg/kg i.p. daily, treatment for 4 weeks) | viral copies in the liver (Ribavirin 20 mg/kg i.p. daily, 1 week after Ribavirin injection) | viral copies in the liver (Ribavirin 20 mg/kg i.p. daily, 4 weeks after Ribavirin injection) | viral copies in the liver (Telaprevir 200 mg/kg i.p. daily, 1 week after Telaprevir injection)
NC(=O)c1ncn([C@@H]2O[C@H](CO)[C@@H](O)[C@H]2O)n1 [Ribavirin] | cannot be detected | cannot be detected | 260±226 genomes/mg | 894±639 genomes/mg | 
CCC[C@H](NC(=O)[C@@H]1[C@H]2CCC[C@H]2CN1C(=O)[C@@H](NC(=O)[C@@H](NC(=O)c1cnccn1)C1CCCCC1)C(C)(C)C)C(=O)C(=O)NC1CC1 [Telaprevir] |  |  |  |  | 273±301 genomes/mg

From patent US9510570B2, “CD81 and OCLN double transgenic mouse and its construction methods” (WUHAN INSTITUTE OF VIROLOGY, CAS, priority 2013, dated 2016)
